This assay concerns HCT116. The following applies: 72 h. The gist of the method:
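Four-parameter Hill fits gave IC50 and maximal efficacy. The data were CellTiter-Glo luminescence readings in HCT116 cells, normalized so that vehicle was 0% and positive control was -100%, with pattern correction afterwards.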

Counter-ions that a name gives are not always drawn. Bounds are passed on as bounds.

As for `FC(F)OC(F)(F)C(F)Cl` (configuration not stated) [Enflurane], the IC50 cell viability by setting is: (ICRF193 0 nM) over 45.8 µM; (ICRF193 200 nM) over 45.8 µM.
As for `CC(C)=CCC/C(C)=C/CC/C(C)=C/CC/C=C(\C)CC/C=C(\C)CCC=C(C)C` [Squalene], the IC50 cell viability was over 45.8 µM (ICRF193 0 nM) and over 45.8 µM (ICRF193 200 nM).
Consider `CCCCC(CC)COC(=O)C(C#N)=C(c1ccccc1)c1ccccc1` (configuration not stated) [Octocrylene], for which the IC50 cell viability reads like this: (ICRF193 0 nM) over 45.8 µM; (ICRF193 200 nM) over 45.8 µM.
Regarding `CC(C)NC1CCn2c(=O)[nH]c3cccc(c32)C1O` (configuration not stated) [Zilpaterol·HCl], the IC50 cell viability was over 45.8 µM (ICRF193 0 nM) and over 45.8 µM (ICRF193 200 nM).
In turn, `CCCCCCCCCCCCCCCCCCO` [1-Octadecanol] gave an IC50 cell viability (ICRF193 0 nM) of over 45.8 µM and an IC50 cell viability (ICRF193 200 nM) of over 45.8 µM.
Consider `COc1ccc(C(=O)c2ccccc2O)c(O)c1` [2,2'-Dihydroxy-4-methoxybenzophenone], for which the IC50 cell viability is over 45.8 µM (ICRF193 0 nM) and over 45.8 µM (ICRF193 200 nM).
As to `CC(=O)Nc1ccccc1` [Acetanilide], the IC50 cell viability was over 45.8 µM (ICRF193 0 nM) and over 45.8 µM (ICRF193 200 nM).
The compound `CC(C)(C)C(=O)OCOC(=O)[C@@H]1N2C(=O)[C@@H](NC(=O)[C@H](N)c3ccccc3)[C@H]2SC1(C)C` [Pivampicillin] had an IC50 cell viability (ICRF193 0 nM) of over 45.8 µM and an IC50 cell viability (ICRF193 200 nM) of over 45.8 µM.
`Clc1ccc(CCCOCCCN2CCCCC2)cc1` [Pitolisant (hydrochloride)]: the IC50 cell viability reads like this: (ICRF193 0 nM) over 45.8 µM; (ICRF193 200 nM) over 45.8 µM.
Turning to `CC(C)(C)CC(C)(C)c1cc(Cc2cc(C(C)(C)CC(C)(C)C)cc(-n3nc4ccccc4n3)c2O)c(O)c(-n2nc3ccccc3n2)c1`, the IC50 cell viability was over 45.8 µM (ICRF193 0 nM) and over 45.8 µM (ICRF193 200 nM).
`CCCCC(CC)COC(=O)c1ccccc1O` (configuration not stated) [2-Ethylhexyl salicylate]: the IC50 cell viability reads like this: (ICRF193 0 nM) over 45.8 µM; (ICRF193 200 nM) over 45.8 µM.
Regarding `CC(=O)N(c1onc(C)c1C)S(=O)(=O)c1ccc(N)cc1` [Sulfisoxazole acetal], the IC50 cell viability reads like this: (ICRF193 0 nM) over 45.8 µM; (ICRF193 200 nM) over 45.8 µM.
Take `CC[C@@H](CO)NC(=O)[C@@H]1C=C2c3cccc4c3c(cn4C)C[C@H]2N(C)C1` [Methysergide]: the IC50 cell viability runs as follows: (ICRF193 0 nM) over 45.8 µM; (ICRF193 200 nM) over 45.8 µM.
Consider `CC1O[C@H](O[C@]2(O[C@H]3CC[C@@]4(C)C(=CC[C@H]5[C@@H]6C[C@H]7[C@H]([C@H](C)[C@H]8CC[C@H](C)CN87)[C@@]6(C)CC[C@@H]54)C3)C[C@@H](O[C@@H]3OC(CO)[C@@H](O)[C@@H](O)C3O)[C@@H](O)C(CO)O2)C(O)[C@@H](O)[C@H]1O` (stereo partly drawn) [Solanine alpha], for which the IC50 cell viability reads like this: (ICRF193 0 nM) over 45.8 µM; (ICRF193 200 nM) over 45.8 µM.
In the case of `O=C(O)c1ccccn1` [Picolinic acid], the IC50 cell viability is over 45.8 µM (ICRF193 0 nM) and over 45.8 µM (ICRF193 200 nM).
Compound `CC(O)Cn1cnc2c1c(=O)n(C)c(=O)n2C` (configuration not stated) [Proxyphylline] displayed an IC50 cell viability (ICRF193 0 nM) of over 45.8 µM and an IC50 cell viability (ICRF193 200 nM) of over 45.8 µM.
`O=C1/C(=C2\Nc3ccc(S(=O)(=O)O)cc3C2=O)Nc2ccc(S(=O)(=O)O)cc21` [Indigo carmine]: the IC50 cell viability is, setting by setting: (ICRF193 0 nM) over 45.8 µM; (ICRF193 200 nM) over 45.8 µM.
As for `CC(CN(C)C)C(C)(O)Cc1ccc(Cl)cc1` (configuration not stated) [Clobutinol hydrochloride], the IC50 cell viability is over 45.8 µM (ICRF193 0 nM) and over 45.8 µM (ICRF193 200 nM).
Regarding `C[C@](N)(Cc1ccc(O)c(O)c1)C(=O)O` [Methyldopa], the IC50 cell viability reads like this: (ICRF193 0 nM) over 45.8 µM; (ICRF193 200 nM) over 45.8 µM.
Take `O=c1ccc2ccccc2o1` [Coumarin]: the IC50 cell viability was over 45.8 µM (ICRF193 0 nM) and over 45.8 µM (ICRF193 200 nM).
`N=C(N)NS(=O)(=O)c1ccc(N)cc1` [Sulfaguanidine] displayed an IC50 cell viability (ICRF193 0 nM) of over 45.8 µM and an IC50 cell viability (ICRF193 200 nM) of over 45.8 µM.
On to `CCOC(=O)[C@H](CCc1ccccc1)N[C@@H](C)C(=O)N1CCC[C@H]1C(=O)O` [Enalapril maleate], for which the IC50 cell viability was over 45.8 µM (ICRF193 0 nM) and over 45.8 µM (ICRF193 200 nM).
Turning to `CCOC(=O)[C@H](CCc1ccccc1)N[C@@H](C)C(=O)N1[C@H](C(=O)O)C[C@H]2CCCC[C@@H]21` [TRANDOLAPRIL], the IC50 cell viability (ICRF193 0 nM) was over 45.8 µM and the IC50 cell viability (ICRF193 200 nM) is over 45.8 µM.
Take `CC(CCc1ccccc1)NCC(O)c1ccc(O)c(C(N)=O)c1` (configuration not stated) [Labetalol HCl]: the IC50 cell viability by setting is: (ICRF193 0 nM) over 45.8 µM; (ICRF193 200 nM) over 45.8 µM.
For the compound `COc1ccc2c(c1)c(CC(=O)OCC(=O)O)c(C)n2C(=O)c1ccc(Cl)cc1` [Acemetacin], the IC50 cell viability is over 45.8 µM (ICRF193 0 nM) and over 45.8 µM (ICRF193 200 nM).
Turning to `N[C@H](Cc1ccccc1)C(=O)O` [D-Phenylalanine], the IC50 cell viability by setting is: (ICRF193 0 nM) over 45.8 µM; (ICRF193 200 nM) over 45.8 µM.

Source of the values: the supplement of paper PMC12137928.
